According to US20260042762A1 (Kymera Therapeutics, Inc., priority 2018, published 2026):
Where a name gives a salt, the structure may show the parent alone.

Columns and labels:
[1] = biological target: T1, MerTK (Homo sapiens, UniProt Q12866); assay: MerTk degradation in Jurkat cells (Western blot); format: cell-based; conditions: Jurkat, 4 h, 0.001-1 μM, 4 hour-incubation at 37° C., read-out: Jurkat Max % MerTK Degradation
T1 construct: endogenous in cells; host or cells: Jurkat cells
T1 sequence (Q12866 21-999): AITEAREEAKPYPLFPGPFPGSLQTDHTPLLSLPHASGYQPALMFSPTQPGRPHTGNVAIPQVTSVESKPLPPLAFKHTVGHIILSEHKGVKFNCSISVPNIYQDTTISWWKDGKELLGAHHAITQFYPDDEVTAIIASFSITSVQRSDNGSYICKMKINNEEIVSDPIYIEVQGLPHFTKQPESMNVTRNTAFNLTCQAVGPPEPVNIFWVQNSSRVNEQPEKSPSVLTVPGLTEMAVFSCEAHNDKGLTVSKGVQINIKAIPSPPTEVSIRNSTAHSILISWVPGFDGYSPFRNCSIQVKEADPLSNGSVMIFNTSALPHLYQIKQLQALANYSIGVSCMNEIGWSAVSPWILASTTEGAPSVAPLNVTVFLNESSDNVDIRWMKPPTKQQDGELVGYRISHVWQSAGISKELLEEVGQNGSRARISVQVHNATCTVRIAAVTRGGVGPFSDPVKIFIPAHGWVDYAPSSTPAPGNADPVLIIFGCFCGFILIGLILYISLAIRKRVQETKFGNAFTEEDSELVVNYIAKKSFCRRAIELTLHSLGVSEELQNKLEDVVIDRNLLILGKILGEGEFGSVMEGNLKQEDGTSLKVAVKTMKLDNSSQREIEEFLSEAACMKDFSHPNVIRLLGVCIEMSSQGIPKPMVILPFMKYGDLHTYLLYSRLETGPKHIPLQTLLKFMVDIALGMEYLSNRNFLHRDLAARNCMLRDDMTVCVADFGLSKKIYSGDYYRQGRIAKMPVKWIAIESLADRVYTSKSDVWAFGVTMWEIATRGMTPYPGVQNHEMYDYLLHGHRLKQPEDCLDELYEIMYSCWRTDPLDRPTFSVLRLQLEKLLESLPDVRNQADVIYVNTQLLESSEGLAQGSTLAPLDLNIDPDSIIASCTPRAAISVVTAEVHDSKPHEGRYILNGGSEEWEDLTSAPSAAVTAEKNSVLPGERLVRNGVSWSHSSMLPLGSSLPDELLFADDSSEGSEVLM
In short: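 MerTK degradation was read by near-infrared Western blot, normalized to actin, in BCA-quantified lysates of Jurkat cells exposed to 0.001-1 μM compound for 4 h at 37 °C.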

[2] = biological target: T2, MerTK (Mus musculus, UniProt Q60805); assay: MerTK degradation in RAW264 cells (Western blot); format: cell-based; conditions: RAW264.7, 0.001-1 μM, 4 hour-incubation at 37° C., read-out: RAW264 Max % MerTK Degradation
T2 construct: endogenous in cells; host or cells: RAW264 cells
T2 sequence (Q60805 19-994): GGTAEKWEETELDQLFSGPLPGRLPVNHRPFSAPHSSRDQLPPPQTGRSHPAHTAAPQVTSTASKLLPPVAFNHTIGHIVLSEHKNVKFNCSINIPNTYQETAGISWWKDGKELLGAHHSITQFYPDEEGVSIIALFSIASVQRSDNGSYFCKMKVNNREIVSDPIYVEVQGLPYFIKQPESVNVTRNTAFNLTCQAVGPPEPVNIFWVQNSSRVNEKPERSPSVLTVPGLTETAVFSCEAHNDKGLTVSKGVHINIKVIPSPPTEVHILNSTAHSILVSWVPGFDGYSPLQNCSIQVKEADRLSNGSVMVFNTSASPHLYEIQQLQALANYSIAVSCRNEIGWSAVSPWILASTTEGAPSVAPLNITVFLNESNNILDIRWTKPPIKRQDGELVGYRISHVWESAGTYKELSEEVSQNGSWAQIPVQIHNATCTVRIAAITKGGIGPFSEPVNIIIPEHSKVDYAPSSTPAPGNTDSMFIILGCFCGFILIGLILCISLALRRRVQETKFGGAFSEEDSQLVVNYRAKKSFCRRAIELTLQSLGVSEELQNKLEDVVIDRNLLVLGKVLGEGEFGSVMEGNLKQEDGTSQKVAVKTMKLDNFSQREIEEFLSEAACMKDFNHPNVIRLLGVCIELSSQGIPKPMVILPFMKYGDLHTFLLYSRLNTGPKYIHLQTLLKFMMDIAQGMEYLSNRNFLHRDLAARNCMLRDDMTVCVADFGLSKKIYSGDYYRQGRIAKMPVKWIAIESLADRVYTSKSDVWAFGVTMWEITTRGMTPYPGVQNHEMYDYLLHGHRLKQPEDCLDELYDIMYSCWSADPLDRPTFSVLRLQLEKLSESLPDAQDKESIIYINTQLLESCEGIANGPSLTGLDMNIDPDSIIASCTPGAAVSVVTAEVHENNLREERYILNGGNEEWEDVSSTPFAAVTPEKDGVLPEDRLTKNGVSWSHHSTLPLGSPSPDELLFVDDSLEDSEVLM
Procedure: Compounds were reconstituted in DMSO to make 10 mM stock solutions. RAW264 cells were maintained in DMEM medium containing 10% FBS. Cells were seeded into 6-well plates with 2×10^6 cells per well. 2 μL of diluted compounds were added to cells to the final concentration of 0.001-1 μM. After a 4 hour-incubation at 37° C., cells were washed with DPBS (1×) once. Then RIPA lysis buffer with Halt Protease and Phosphatase Inhibitor Cocktail was added directly to the cells and cells were then incubated on ice for 10 min, then lysate was harvested into 1.5 mL Eppendorf tubes and centrifuged at 14,000 rpm for 10 min at 4° C. and the supernatants were collected for Western blots.
The protein concentration of cell lysates was quantified with Pierce™ BCA Protein Assay Kit. […] BCA working reagents were prepared by mixing BCA reagent A with reagent B in 50: 1 ratio. 200 μL of the BCA working reagents were added to 25 μL of BCA standard or cell lysates in microplate, and mixed thoroughly on a plate shaker for 30 seconds. After incubation at 37° C. for 30 min, the absorbance of samples at 562 nm were measured with EnVision Plate Reader.
Protein lysates were prepared in NuPAGE™ LDS sample buffer and NuPAGE™ sample reducing agent, and incubated at 95° C. for 5 min. […] The proteins were transferred to low fluorescence PVDF membranes using the Trans-Blot Turbo Transfer System. Membranes were then blocked in Odyssey blocking buffer at RT for 1 h followed by primary incubation at 4° C. overnight. The primary antibodies were MerTK goat polyclonal antibody and actin mouse monoclonal antibody. Membranes were washed three times with TBST (1×), and then incubated with IR Dye 800 CW Donkey anti-goat and IR Dye 700 CW Goat anti-mouse secondary antibodies in 1:10,000 dilution at RT for 1 h. The Western blot images were obtained using Odyssey Imaging System.

SMILES	Dmax [1]	Dmax [2]
CCCCNc1ncc2c(-c3ccc(S(=O)(=O)N4CCN(CCOCCOCCOCCOCCCc5cccc6c5n(C)c(=O)n6C5CCC(=O)NC5=O)CC4)cc3)cn([C@H]3CC[C@H](O)CC3)c2n1 (stereo partly drawn) [I-13, 3-[4-[1-(4-[4-[2-(Butylamino)-7-[trans-4-hydroxycyclohexyl]-7H-pyrrolo [2,3-d]pyrimidin-5-yl]benzenesulfonyl]piperazin-1-yl)-3,6,9,12-tetraoxapentadecan-15-yl]-3-methyl-2-oxo-2,3-dihydro-1H-1,3-benzodiazol-1-yl]piperidine-2,6-dione formate]	> 50%	> 50%
CCCCNc1ncc2c(-c3ccc(S(=O)(=O)N4CCN(C(=O)NCCCOCCCNc5cccc6c5C(=O)N(C5CCC(=O)NC5=O)C6=O)CC4)cc3)nn([C@H]3CC[C@H](O)CC3)c2n1 (stereo partly drawn) [I-20, 4-((4-(6-(Butylamino)-1-(trans-4-hydroxycyclohexyl)-1H-pyrazolo[3,4-d]pyrimidin-3-yl)phenyl)sulfonyl)-N-(3-(3-((2-(2,6-dioxopiperidin-3-yl)-1,3-dioxoisoindolin-4-yl)amino)propoxy)propyl)piperazine-1-carboxamide]	> 50%	> 50%
COCCNc1ncc2c(-c3ccc(CN4CCN(CCOCCOCCOCCOCCNc5cccc6c5C(=O)N(C5CCC(=O)NC5=O)C6=O)CC4)cc3)cn([C@H]3CC[C@H](O)CC3)c2n1 (stereo partly drawn) [I-15, 2-(2,6-Dioxopiperidin-3-yl)-4-(15-[4-[(4-[2-[(2-methoxyethyl)amino]-7-[trans-4-hydroxycyclohexyl]-7H-pyrrolo[2,3-d]pyrimidin-5-yl]phenyl)methyl]piperazin-1-yl]-4,7,10,13-tetraoxa-1-azapentadecan-1-yl)-2,3-dihydro-1H-isoindole-1,3-dione diformate]	> 50%	20 to 50%
CCCCNc1ncc2c(-c3ccc(S(=O)(=O)N4CCN(C(=O)NCCCOCCCOCCCc5cccc6c5n(C)c(=O)n6C5CCC(=O)NC5=O)CC4)cc3)nn([C@H]3CC[C@H](O)CC3)c2n1 (stereo partly drawn) [I-29, 4-((4-(6-(Butylamino)-1-(trans-4-hydroxycyclohexyl)-1H-pyrazolo[3,4-d]pyrimidin-3-yl)phenyl)sulfonyl)-N-(3-(3-(3-(1-(2,6-dioxopiperidin-3-yl)-3-methyl-2-oxo-2,3-dihydro-1H-benzo[d]imidazol-4-yl)propoxy)propoxy)propyl)piperazine-1-carboxamide]	> 50%	> 50%
CCCCNc1ncc2c(-c3ccc(S(=O)(=O)N4CCN(C(=O)NCCOCCCOCCNc5cccc6c5C(=O)N(C5CCC(=O)NC5=O)C6=O)CC4)cc3)nn([C@H]3CC[C@H](O)CC3)c2n1 (stereo partly drawn) [I-23, 4-((4-(6-(Butylamino)-1-(trans-4-hydroxycyclohexyl)-1H-pyrazolo[3,4-d]pyrimidin-3-yl)phenyl)sulfonyl)-N-(2-(3-(2-((2-(2,6-dioxopiperidin-3-yl)-1,3-dioxoisoindolin-4-yl)amino)ethoxy)propoxy)ethyl)piperazine-1-carboxamide]	> 50%	20 to 50%
CCCCNc1ncc(-c2ccc(CN3CCN(C(=O)COCCOCCOCCOCCNc4cccc5c4C(=O)N(C4CCC(=O)NC4=O)C5=O)CC3)cn2)c(N[C@H]2CC[C@H](O)CC2)n1 (stereo partly drawn) [I-22, 4-[15-[4-([6-[2-(Butylamino)-4-[[trans-4-hydroxycyclohexyl]amino]pyrimidin-5-yl]pyridin-3-yl]methyl)piperazin-1-yl]-15-oxo-4,7,10,13-tetraoxa-1-azapentadecan-1-yl]-2-(2,6-dioxopiperidin-3-yl)-2,3-dihydro-1H-isoindole-1,3-dione]	> 50%	–
Cn1c(=O)n([C@H]2CCC(=O)NC2=O)c2ccc(CCCCN3CCC(N4CCN(Cc5ccc(-c6cn([C@H]7CC[C@H](O)CC7)c7nc(NCCC(F)(F)F)ncc67)cc5)CC4)CC3)cc21 [I-120, 3-[3-methyl-2-oxo-5-[4-(4-[4-[(4-[7-[trans-4-hydroxycyclohexyl]-2-[(3,3,3-trifluoropropyl)amino]-7H-pyrrolo[2,3-d]pyrimidin-5-yl]phenyl)methyl]piperazin-1-yl]piperidin-1-yl)butyl]-2,3-dihydro-1H-1,3-benzodiazol-1-yl]piperidine-2,6-dione]	> 50%	–
Cn1c(=O)n(C2CCC(=O)NC2=O)c2ccc(CCCOCC(F)CN3CCN(Cc4ccc(-c5cn([C@H]6CC[C@H](O)CC6)c6nc(NCCC(F)(F)F)ncc56)cc4)CC3)cc21 (stereo partly drawn) [I-160, 3-[5-[3-(2-fluoro-3-[4-[(4-[7-[trans-4-hydroxycyclohexy1]-2-[(3,3,3-trifluoropropyl)amino]pyrrolo[2,3-d]pyrimidin-5-yl]phenyl)methyl]piperazin-1-yl]propoxy)propyl]-3-methyl-2-oxo-1,3-benzodiazol-1-yl]piperidine-2,6-dione]	> 50%	–
COc1ccc(Nc2nc(Nc3cc(OCCOCCOCCOCCOCC(=O)N[C@H](C(=O)N4C[C@H](O)C[C@H]4C(=O)NCc4ccc(-c5scnc5C)cc4)C(C)(C)C)c(OC)cc3C)ncc2Cl)c(NS(C)(=O)=O)c1 [I-228]	20 to 50%	–
Cn1c(=O)n([C@H]2CCC(=O)NC2=O)c2ccc(CCCC3CN(C4CCN(Cc5ccc(-c6cn([C@H]7CC[C@H](O)CC7)c7nc(NCCC(F)(F)F)ncc67)cc5)CC4)C3)cc21 [I-156, 3-[3-methyl-2-oxo-5-[3-(1-[1-[(4-[7-[trans-4-hydroxycyclohexy1]-2-[(3,3,3-trifluoropropyl)amino]pyrrolo[2,3-d]pyrimidin-5-y1]phenyl)methyl]piperidin-4-yl]azetidin-3-yl)propyl]-1,3-benzodiazol-1-yl]piperidine-2,6-dione; formic acid]	> 50%	–
